Among the data in paper PMC6269792, “Arylsulfonylamino-Benzanilides as Inhibitors of the Apical Sodium-Dependent Bile Salt Transporter (SLC10A2)” (Molecules, 2013) are inhibition, IC50 and melting point values, retold here.

The target in one data set is T1, Human ASBT (Homo sapiens, UniProt Q12908).
T1 construct: expressed in transfected cells; host or cells: HEK293T
T1 sequence (Q12908 1-348): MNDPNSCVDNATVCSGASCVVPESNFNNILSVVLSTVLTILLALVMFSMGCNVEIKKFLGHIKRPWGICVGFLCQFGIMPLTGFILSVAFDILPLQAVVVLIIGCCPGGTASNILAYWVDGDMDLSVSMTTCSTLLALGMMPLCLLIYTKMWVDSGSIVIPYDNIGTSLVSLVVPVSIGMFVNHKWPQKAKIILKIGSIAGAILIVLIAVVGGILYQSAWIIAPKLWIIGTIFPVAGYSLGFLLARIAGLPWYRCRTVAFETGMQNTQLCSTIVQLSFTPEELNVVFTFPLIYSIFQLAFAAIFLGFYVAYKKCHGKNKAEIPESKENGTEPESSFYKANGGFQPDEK
In words: ASBT inhibition assay: [3H]-taurocholic acid uptake in HEK293T cells transiently transfected with human ASBT. It is filed as cell-based. The conditions noted are these: for inhibition at 10 µM: HEK-293T; for IC50: inhibitor concentration that gives 50% taurocholate uptake compared to no inhibitor control. Here is the method: In vitro inhibitory activity of all target compounds against ASBT was evaluated using a radioisotope-based assay. All the newly synthesized derivatives were initially tested at 10 μM concentration (Table 1).
HEK293T was obtained from the American Type Culture Collection (Manassas, VA, USA), and grown in MEM supplemented with 100 U/mL penicillin and […] streptomycin and 10% heat-inactivated fetal bovine serum. Human ASBT expression construct was prepared as previously described. HEK293T cells were seeded in 12 well plates and transiently transfected with 0.5 μg/well pcDNA3.1/ASBT or negative control plasmid pcDNA3.1 using lipofactamine 2000 (Invitrogen, Carlsbad, CA, USA) according to the manufacturer’s instructions. Twenty-four hours after transfection, HEK293T cells were assayed for taurocholic acid uptake as previously described with minor modifications. […] To terminate the transport process, the plates were chilled on ice and the cells were immediately washed with ice-cold buffer three times. Cells were lysed with 0.3 mL lysis buffer (0.5% triton x-100) and shaken vigorously for 20 min. The radioactivity of the cell lysate was counted using a MicroBeta^2 Liquid Scintillation and Luminescence Counter (PerkinElmer Life Sciences). Protein concentration of the lysate was used to normalize uptake activity.
The inhibition rate was calculated using the following formula: Inhibition Rate (%) = [(1 − (A − C)/(B − C)] × 100
A, [^3H] uptake value of test compound in [^3H]-TCA buffer added to pcDNA3.1/ASBT transfected cells; B, [^3H] uptake value of DMSO (without inhibitor) in [^3H]-TCA buffer added to pcDNA3.1/ASBT transfected cells; C, [^3H] uptake value of Blank sample (DMSO) in [^3H]-TCA buffer added to empty vector (pcDNA3.1) transfected cells.

Regarding `O=C(Nc1ccc(F)c(Cl)c1)c1ccccc1NS(=O)(=O)c1cccc([N+](=O)[O-])c1` [Compound 5a2, N-(3-Chloro-4-fluorophenyl)-2-(3-nitrophenylsulfonamido)benzamide], the melting point (in general, the temperature of the solid-liquid transition) is 203.4 to 204.1 °C. For the same molecule, at Human ASBT, the inhibition (in general, how much of the control response was suppressed) at 10 µM came to 95.4 ± 3.3% and the IC50 (in general, the point on the concentration scale where inhibition reaches its midpoint) came to 1320 ± 280 nM.
Consider `O=C(Nc1cccc(OC(F)F)c1)c1ccccc1NS(=O)(=O)c1cccc([N+](=O)[O-])c1` [Compound 5a3, N-(3-(Difluoromethoxy)phenyl)-2-(3-nitrophenylsulfonamido)benzamide], for which the melting point lay in the range of 127.4 to 128.2 °C. On Human ASBT, this molecule displayed an inhibition at 10 µM of 89 ± 2.6% and an IC50 of 2840 ± 520 nM.
Molecule `O=C(Nc1cccc(OC(F)(F)F)c1)c1ccccc1NS(=O)(=O)c1cccc([N+](=O)[O-])c1` [Compound 5a4, 2-(3-Nitrophenylsulfonamido)-N-(3-(trifluoromethoxy)phenyl)benzamide] returned a melting point of 141.4 to 142 °C. Besides, at Human ASBT, the inhibition at 10 µM was 83.8 ± 3.4% and the IC50 worked out at 1230 ± 120 nM.
With `O=C(Nc1cc(F)cc(F)c1)c1ccccc1NS(=O)(=O)c1cccc([N+](=O)[O-])c1` [Compound 5a5, N-(3,5-Difluorophenyl)-2-(3-nitrophenylsulfonamido)benzamide], the melting point is 181.1 to 181.9 °C. For the same molecule, on Human ASBT, 10 µM produced 21.6 ± 4.1% inhibition.
`COc1ccc(NC(=O)c2ccccc2NS(=O)(=O)c2cccc([N+](=O)[O-])c2)cc1O` [Compound 5a6, N-(3-Hydroxy-4-methoxyphenyl)-2-(3-nitrophenylsulfonamido)benzamide] returned a melting point of 168.9 to 170.1 °C. At Human ASBT, this molecule registered an inhibition at 10 µM of 32.1 ± 3.3%.
For `O=C(Nc1cc(Cl)cc(Cl)c1)c1ccccc1NS(=O)(=O)c1cccc([N+](=O)[O-])c1` [Compound 5a7, N-(3,5-Dichlorophenyl)-2-(3-nitrophenylsulfonamido)benzamide], the melting point fell in the range of 209.9 to 210.4 °C. In addition, the inhibition at 10 µM against Human ASBT turned out to be 56.3 ± 2.8%.
Molecule `O=C(Nc1cccc(Cl)c1)c1ccccc1NS(=O)(=O)c1cccc([N+](=O)[O-])c1` [Compound 5a9, N-(3-Chlorophenyl)-2-(3-nitrophenylsulfonamido)benzamide] registered a melting point of 167.3 to 168.1 °C. This molecule displayed an inhibition at 10 µM on Human ASBT of 46.9 ± 3.6%.
For the molecule `Cc1ccc(NC(=O)c2ccccc2NS(=O)(=O)c2cccc([N+](=O)[O-])c2)cc1C(F)(F)F` [Compound 5a10, N-(4-Methyl-3-(trifluoromethyl)phenyl)-2-(3-nitrophenylsulfonamido)benzamide], the melting point was in the range of 166.4 to 167.4 °C. Also, on Human ASBT, the inhibition at 10 µM is 90.7 ± 4.2% and half-maximal inhibition (IC50) required 1490 ± 90 nM.
`O=C(Nc1ccc(F)c(Cl)c1)c1cccc(NS(=O)(=O)c2cccc([N+](=O)[O-])c2)c1` [Compound 5b1, N-(3-Chloro-4-fluorophenyl)-3-(3-nitrophenylsulfonamido)benzamide] returned a melting point of 161.3 to 162.6 °C. At Human ASBT, at 10 µM the inhibition was 66.3 ± 5%.
`O=C(Nc1cccc(OC(F)F)c1)c1cccc(NS(=O)(=O)c2cccc([N+](=O)[O-])c2)c1` [Compound 5b2, N-(3-(Difluoromethoxy)phenyl)-3-(3-nitrophenylsulfonamido)benzamide] came in with a melting point of 159.8 to 160.6 °C. Moreover, on Human ASBT, the inhibition at 10 µM was determined as 30.6 ± 4.3%.
The molecule `O=C(Nc1ccc(Cl)c(Cl)c1)c1cccc(NS(=O)(=O)c2cccc([N+](=O)[O-])c2)c1` [Compound 5b3, N-(3,4-dichlorophenyl)-3-(3-nitrophenylsulfonamido)benzamide] showed a melting point of 192.5 to 193.7 °C. Further, the inhibition at 10 µM on Human ASBT is 62.4 ± 2.9%.
In the case of `O=C(Nc1cccc(OC(F)(F)F)c1)c1ccc(NS(=O)(=O)c2cccc([N+](=O)[O-])c2)cc1` [Compound 5c1, 4-(3-Nitrophenylsulfonamido)-N-(3-(trifluoromethoxy)phenyl)benzamide], the melting point was 177.3 to 178.2 °C. On Human ASBT, this molecule registered an inhibition at 10 µM of 29.6 ± 3.5%.
`O=C(Nc1ccc(Cl)c(Cl)c1)c1ccc(NS(=O)(=O)c2cccc([N+](=O)[O-])c2)cc1` [Compound 5c2, N-(3,4-Dichlorophenyl)-4-(3-nitrophenylsulfonamido)benzamide] had a melting point of 189.2 to 190.5 °C. The inhibition at 10 µM against Human ASBT turned out to be 34.8 ± 3.7%.
On the same counts, the results for `O=C(Nc1ccc(Cl)cc1Cl)c1ccccc1NS(=O)(=O)c1ccc([N+](=O)[O-])cc1` [Compound 5d1, N-(2,4-Dichlorophenyl)-2-(4-nitrophenylsulfonamido)benzamide] are 220.6 to 221.3 °C and 66.9 ± 3.5%.
On to `O=C(Nc1ccc(F)c(Cl)c1)c1ccccc1NS(=O)(=O)c1ccc([N+](=O)[O-])cc1` [Compound 5d2, N-(3-Chloro-4-fluorophenyl)-2-(4-nitrophenylsulfonamido)benzamide], for which the melting point fell in the range of 226.4 to 227.1 °C. Besides, on Human ASBT, 10 µM produced 75.5 ± 4.4% inhibition.
In turn, `Cc1ccc(NC(=O)c2ccccc2NS(=O)(=O)c2ccc([N+](=O)[O-])cc2)cc1C(F)(F)F` [Compound 5d3, N-(4-Methyl-3-(trifluoromethyl)phenyl)-2-(4-nitrophenylsulfonamido)benzamide] returned a melting point of 198.8 to 199.6 °C. Further, the inhibition at 10 µM on Human ASBT came to 73.7 ± 3.8%.
Turning to `O=C(Nc1cccc(OC(F)F)c1)c1ccccc1NS(=O)(=O)c1ccc([N+](=O)[O-])cc1` [Compound 5d4, N-(3-(Difluoromethoxy)phenyl)-2-(4-nitrophenylsulfonamido)benzamide], the melting point lay within 203.9 to 205 °C. Besides, at Human ASBT, the inhibition at 10 µM was 58.8 ± 4.3%.
As to `O=C(Nc1cccc(OC(F)(F)F)c1)c1ccccc1NS(=O)(=O)c1ccc([N+](=O)[O-])cc1` [Compound 5d5, 2-(4-Nitrophenylsulfonamido)-N-(3-(trifluoromethoxy)phenyl)benzamide], the melting point is 198.8 to 199.4 °C. This molecule also registered an inhibition at 10 µM at Human ASBT of 66.7 ± 3.9%.
On to `O=C(Nc1ccc(Cl)c(Cl)c1)c1ccccc1NS(=O)(=O)c1ccc([N+](=O)[O-])cc1` [Compound 5d6, N-(3,4-Dichlorophenyl)-2-(4-nitrophenylsulfonamido)benzamide], for which the melting point fell in the range of 243.4 to 243.6 °C. On Human ASBT, this molecule had an inhibition at 10 µM of 73.9 ± 2.2%.
`O=C(Nc1ccc(Cl)cc1Cl)c1ccccc1NS(=O)(=O)c1cccc(F)c1` [Compound 5e1, N-(2,4-Dichlorophenyl)-2-(3-fluorophenylsulfonamido)benzamide] showed a melting point of 146.3 to 147.6 °C. Also, testing at 10 µM at Human ASBT gave an inhibition of 42.6 ± 3.4%.
On to `O=C(Nc1ccc(F)c(Cl)c1)c1ccccc1NS(=O)(=O)c1cccc(F)c1` [Compound 5e2, N-(3-Chloro-4-fluorophenyl)-2-(3-fluorophenylsulfonamido)benzamide], for which the melting point fell in the range of 178.6 to 179.9 °C. The molecule further registered an inhibition at 10 µM at Human ASBT of 63.2 ± 3.8%.
Turning to `Cc1ccc(NC(=O)c2ccccc2NS(=O)(=O)c2cccc(F)c2)cc1C(F)(F)F` [Compound 5e3, 2-(3-Fluorophenylsulfonamido)-N-(4-methyl-3-(trifluoromethyl)phenyl)benzamide], the melting point was 168.8 to 169.6 °C. For the same molecule, 10 µM produced 57.6 ± 2.9% inhibition against Human ASBT.
On Human ASBT, `O=C(Nc1ccc(Cl)c(Cl)c1)c1ccccc1NS(=O)(=O)c1cccc(OC(F)(F)F)c1` [Compound 5g5, N-(3,4-Dichlorophenyl)-2-(3-(trifluoromethoxy)phenylsulfonamido)benzamide] displayed an inhibition at 10 µM of 80.8 ± 4.3% and an IC50 of 1220 ± 200 nM.
